Measured values published in patent publication US11485736B2 (KSQ Therapeutics, Inc., priority 2018, dated 2022).
Read-outs that look alike come from different tables or passages of the source.

Tests used:
[1] = ADME solubility determination at pH 2.0 and pH 7.4; type: physicochemical; conditions: aqueous buffer, thermodynamic from solid, LC-MS/MS
Description: Certain Compounds of the Disclosure were assessed for ADME solubility at pH 2.0 and pH 7.4.
Stock solutions were prepared by adding each compound to DMSO at a concentration of 10 mM. Samples were prepared by adding 50 μL of each stock solution to separate vials. The vials were loaded onto a 96-well rack and dried. 500 μL of Phosphate Buffered Saline (PBS) pH 7.4 or PBS pH 2.0 were added into each vial. The vials were then shaken at 25° C. and 1,100 rpm for 24 hours.
After 24 hours, the vials were centrifuged at 3220 G and 25° C. for 30 minutes. The supernatant fluid was analyzed by LC-MS/MS against a standard of known concentration. The solubility of each sample was then calculated using the equation below:
[formula] where DF is the dilution factor.

[2] = Liver microsomal stability, human liver microsomes; type: in vitro ADME; conditions: 1 μM compound, NADPH, read-out: t1/2 (min) in HLM
Description: (§1) Certain Compounds of the Disclosure were assessed for ADME metabolic stability in human liver microsomes (HLM) and rat liver microsomes (RLM).
(§2) Samples were prepared by adding 222.5 μL of a master solution (100 mM phosphate buffer and 1 mg/mL liver microsomes (HLM or RLM)) and 25 μL of a 10 mM NADPH solution to incubation plates, which were then warmed for 10 min. Each compound was separately dissolved in DMSO to prepare 10 mM stock solutions, which were then diluted to 100 μM with acetonitrile. A reaction was started by adding 2.5 μL of the 100 μM solution of each compound to separate incubation plates such that the final concentration of for each compound in each plate was 1 μM.
(§3) 25 μL aliquots of each sample were taken at 0.5, 5, 10, 15, 20 and 30 minutes, and the reaction was stopped by adding 5 volumes of cold acetonitrile with IS (100 nM alprazolam, 200 nM caffeine and 100 nM tolbutamide). The samples were then centrifuged at 3,220 G for 30 minutes, and 100 μL of the supernatant fluid was mixed with 100 μL of ultra-pure H2O.
(§4) The samples were then analyzed by LC-MS/MS. Peak areas were determined from extracted ion chromatograms. Slope values (k) were determined by linear regression of the natural logarithm of the remaining percentage of the compound vs. incubation time curve. […] The in vitro half-life (min) was converted into the in vitro intrinsic clearance (in vitro CLint, in μL/min/mg protein) using the following equation: […]

[3] = Liver microsomal stability, rat liver microsomes; type: in vitro ADME; conditions: 1 μM compound, NADPH, read-out: t1/2 (min) in RLM
Description: as §1, §2, §3, §4

[4] = PBS pH 2.0, shaken at 25° C. for 24 hours, read-out: Solubility at pH 2.0
[5] = PBS pH 7.4, shaken at 25° C. for 24 hours, read-out: Solubility at pH 7.4

SMILES | solubility at 24 h [1, 4] [µM] | solubility at 24 h [1, 5] [µM] | half-life at 1 μM [2] [min] | half-life at 1 μM [3] [min]
COc1ncnc(C2CC2)c1-c1ncc2cnn([C@@H](C)c3ccc(-c4nc(C(F)(F)F)cn4C(C)C)cc3)c2n1 [Example 97] | > 10 | < 10 | > 25 | > 25
COc1ncnc(C2CC2)c1-c1ncc2cnn(Cc3ccc(-c4nc(C(F)(F)F)c[nH]4)cc3)c2n1 [Example 134, 6-(4-cyclopropyl-6-methoxypyrimidin-5-yl)-1-(4-(4-(trifluoromethyl)-1H-imidazol-2-yl)benzyl)-1H-pyrazolo[3,4-d]pyrimidine] | < 10 | < 10 | > 25 | > 25
COc1ncnc(C2CC2)c1-c1ncc2cnn(Cc3ccc(-n4nc(C(F)F)cc4N(C)C)cc3)c2n1 [Example 123] | < 10 | < 10 | < 25 | < 25
CCn1cc(C(F)(F)F)nc1-c1ccc([C@@H](C)n2ncc3cnc(-c4c(OC)ncnc4C4CC4)nc32)cc1 (single isomer, unassigned) [Example 95] | > 10 | < 10 | > 25 | < 25
COc1ncnc(C2CC2)c1-c1ncc2cnn([C@H]3CCc4cc(-c5nc(C(F)(F)F)cn5C(C)C)ccc43)c2n1 [Example 173, (S)-6-(4-cyclopropyl-6-methoxypyrimidin-5-yl)-1-(5-(1-isopropyl-4-(trifluoromethyl)-1H-imidazol-2-yl)-2,3-dihydro-1H-inden-1-yl)-1H-pyrazolo[3,4-d]pyrimidine] | < 10 | < 10 | > 25 | > 25
CCn1cc(C(F)(F)F)nc1-c1ccc(Cn2nc(OC)c3cnc(-c4c(OC)ncnc4C4CC4)nc32)cc1 [Example 176] | > 10 | < 10 | > 25 | > 25
CC(C)c1ccccc1-c1ncc2cnn(C(C)c3ccc(-c4nc(C(F)(F)F)cn4C)cc3)c2n1 (centres unmarked) [Example 24] | < 10 | < 10 | < 25 | < 25
COc1ncnc(C2CC2)c1-c1ncc2cnn(Cc3ccc(-c4nc(C(F)(F)F)cn4CC(F)F)cc3)c2n1 [Example 138] | > 10 | > 10 | > 25 | > 25
CC(C)c1ncccc1-c1ncc2cnn(Cc3ccc(-c4nc(C(F)(F)F)cn4C)cc3)c2n1 [Example 9, 6-(2-isopropylpyridin-3-yl)-1-(4-(1-methyl-4-(trifluoromethyl)-1H-imidazol-2-yl)benzyl)-1H-pyrazolo[3,4-d]pyrimidine] | > 10 | > 10 | < 25 | < 25
COc1ncnc(C2CC2)c1-c1ncc2ncn(Cc3ccc(-c4nc(C(F)(F)F)cn4C(C)C)cc3)c2n1 [Example 204] | > 10 | > 10 | > 25 | < 25
COc1ncnc(C2CC2)c1-c1ncc2cnn(Cc3ccc(-c4nc(C(F)(F)F)c(Br)n4C(C)C)cc3)c2n1 [Example 162] | < 10 | < 10 | > 25 | > 25
CCn1cc(C(F)(F)F)nc1-c1ccc(Cn2ncc3cnc(-c4c(OC)ncnc4C4CC4)nc32)cn1 [Example 75] | < 10 | < 10 | > 25 | > 25
COc1ncnc(C2CC2)c1-c1ncc2cnn(Cc3ccc(-c4nc5c(F)cccc5n4C)cc3)c2n1 [Example 131] | > 10 | < 10 | > 25 | > 25
COc1ncnc(C2CC2)c1-c1ncc2cnn(Cc3ccc(-c4nc(C#N)cn4C)cc3)c2n1 [Example 69] | > 10 | > 10 | < 25 | < 25
COc1ncnc(C2CC2)c1-c1ncc2cnn(Cc3ccc(-c4nc(C(F)(F)F)cn4C(C)CF)cc3)c2n1 (centres unmarked) [Example 151, 6-(4-cyclopropyl-6-methoxypyrimidin-5-yl)-1-(4-(1-(1-fluoropropan-2-yl)-4-(trifluoromethyl)-1H-imidazol-2-yl)benzyl)-1H-pyrazolo[3,4-d]pyrimidine] | > 10 | > 10 | > 25 | > 25
COc1ncnc(C2CC2)c1-c1ncc2cnn(Cc3ccc(-c4nc(C(F)(F)F)c(OC)n4C)cc3)c2n1 [Example 165] | < 10 | < 10 | > 25 | > 25
CCn1cc(C(F)(F)F)nc1-c1ccc(Cn2ncc3cnc(-c4c(OC)ncnc4C4CN(C)C4)nc32)cc1 [Example 101] | > 10 | < 10 | < 25 | < 25
CCn1cc(C(F)(F)F)nc1-c1ccc(Cn2nc(OC3CCC3)c3cnc(-c4c(OC)ncnc4C4CC4)nc32)cc1 [Example 184] | < 10 | < 10 | < 25 | < 25

Other lines, results leading:

solubility at 24 h [1, 4] [µM] | solubility at 24 h [1, 5] [µM] | half-life at 1 μM [2] [min] | half-life at 1 μM [3] [min] | SMILES
> 10 | > 10 | > 25 | > 25 | COc1ncnc(C)c1-c1ncc2cnn(Cc3ccc(-c4nc(C(F)(F)F)cn4C)cc3)c2n1 [Example 33]
> 10 | < 10 | < 25 | < 25 | CC(C)Oc1ncnc(C2CC2)c1-c1ncc2cnn(Cc3ccc(-c4nc(C(F)(F)F)cn4C)cc3)c2n1 [Example 40]
< 10 | < 10 | > 25 | > 25 | COc1ncnc(C2CC2)c1-c1ncc2cnn(Cc3ccc(-c4nc(C(F)(F)F)cn4C(C)C)cc3)c2n1 [Example 143]
> 10 | > 10 | > 25 | > 25 | COc1ncnc(C2CC2)c1-c1ncc2cnn(Cc3ccc(-n4nc(C(F)(F)F)cc4OC4CNC4)cc3)c2n1 [Example 200, 1-(4-(5-(azetidin-3-yloxy)-3-(trifluoromethyl)-1H-pyrazol-1-yl)benzyl)-6-(4-cyclopropyl-6-methoxypyrimidin-5-yl)-1H-pyrazolo[3,4-d]pyrimidine]
> 10 | > 10 | < 25 | > 25 | COc1ncnc(C2CC2)c1-c1ncc2nc(C)n(Cc3ccc(-n4nc(C(F)(F)F)cc4C)cc3)c2n1 [Example 211]
< 10 | < 10 | > 25 | > 25 | COc1ncnc(C2CC2)c1-c1ncc2cnn(Cc3ccc(-n4nc(C(F)(F)F)cc4OC)cc3)c2n1 [Example 37]
< 10 | < 10 | < 25 | < 25 | COc1ncnc(C2CC2)c1-c1ncc2cnn(Cc3ccc(-n4nc(C(F)(F)F)cc4SC)cc3)c2n1 [Example 38]
> 10 | > 10 | > 25 | > 25 | CCn1cc(C(F)(F)F)nc1-c1ccc(Cn2ncc3cnc(-c4c(OC)ncnc4OC)nc32)cc1 [Example 87]
< 10 | < 10 | > 25 | > 25 | COc1ncnc(C2CC2)c1-c1ncc2cnn(Cc3ccc(-n4nc(C(F)F)cc4C)cc3)c2n1 [Example 50]
< 10 | < 10 | < 25 | < 25 | CSc1ncnc(C)c1-c1ncc2cnn(Cc3ccc(-n4nc(C(F)(F)F)cc4C)cc3)c2n1 [Example 46]
< 10 | < 10 | > 25 | > 25 | COc1ncnc(C2CC2)c1-c1ncc2cnn(Cc3ccc(-c4nc(C(F)(F)F)nn4C(C)C)cc3)c2n1 [Example 58]
